# Assay results from ChEMBL document CHEMBL4011620, “Design and Discovery of N-(2-Methyl-5'-morpholino-6'-((tetrahydro-2H-pyran-4-yl)oxy)-[3,3'-bipyridin]-5-yl)-3-(trifluoromethyl)benzamide (RAF709): A Potent, Selective, and Efficacious RAF Inhibitor Targeting RAS Mutant Cancers” (J Med Chem, 2017).
# Activity calls are given as the source filed them. The calls are words filed in the database; no cut-off is given here.
# Assays:
# [1] = Apparent permeability across apical to basolateral side in human Caco2 cells at pH 7.4 by LC/MS/MS analysis; settings: Caco-2, pH 7.4
# [2] = Solubility of compound at pH 6.8 by shake-flask assay; settings: buffer
# [3] = target: Serine/threonine-protein kinase B-raf (Homo sapiens, UniProt P15056); assay: Binding affinity to human BRAF (429 to 741 residues) expressed in mammalian expression system at 1 uM by kinome scan assay relative to control
# Serine/threonine-protein kinase B-raf, sequence (P15056 whole entry, the tested form may be a part): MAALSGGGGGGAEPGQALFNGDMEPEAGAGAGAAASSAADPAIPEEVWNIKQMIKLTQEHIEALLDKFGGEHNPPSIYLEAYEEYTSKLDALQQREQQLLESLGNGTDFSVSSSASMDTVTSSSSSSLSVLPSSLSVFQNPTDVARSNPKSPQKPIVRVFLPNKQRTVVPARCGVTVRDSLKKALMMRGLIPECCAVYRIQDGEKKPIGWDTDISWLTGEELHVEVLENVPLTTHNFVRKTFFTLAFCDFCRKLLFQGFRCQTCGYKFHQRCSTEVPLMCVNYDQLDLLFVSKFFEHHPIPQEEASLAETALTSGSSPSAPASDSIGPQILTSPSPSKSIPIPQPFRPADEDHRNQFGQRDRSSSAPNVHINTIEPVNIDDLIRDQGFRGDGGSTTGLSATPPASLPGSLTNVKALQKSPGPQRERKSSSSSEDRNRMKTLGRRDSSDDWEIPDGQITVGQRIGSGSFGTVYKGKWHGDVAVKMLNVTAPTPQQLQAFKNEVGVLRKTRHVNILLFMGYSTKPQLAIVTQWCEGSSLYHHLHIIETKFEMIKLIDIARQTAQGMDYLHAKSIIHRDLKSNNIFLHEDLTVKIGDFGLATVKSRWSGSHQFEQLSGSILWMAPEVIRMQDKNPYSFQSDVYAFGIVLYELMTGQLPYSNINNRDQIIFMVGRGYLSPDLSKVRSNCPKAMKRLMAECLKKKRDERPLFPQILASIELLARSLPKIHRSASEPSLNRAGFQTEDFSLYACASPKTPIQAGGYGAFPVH
# [4] = test system: Serine/threonine-protein kinase B-raf (Homo sapiens), P15056 [V600E]; assay: Binding affinity to human BRAF V600E mutant (429 to 741 residues) expressed in mammalian expression system at 1 uM by kinome scan assay relative to control
# Serine/threonine-protein kinase B-raf (Homo sapiens), P15056 [V600E], sequence (P15056 whole entry V600E, the tested form may be a part): as the sequence (P15056 whole entry, the tested form may be a part) above, with V600E counted along it
# [5] = target: T1, Discoidin domain-containing receptor 2 (Homo sapiens) (UniProt Q16832); assay: Binding affinity to human DDR2 (555 to 855 residues) expressed in mammalian expression system at 1 uM by kinome scan assay relative to control
# T1 sequence (whole entry): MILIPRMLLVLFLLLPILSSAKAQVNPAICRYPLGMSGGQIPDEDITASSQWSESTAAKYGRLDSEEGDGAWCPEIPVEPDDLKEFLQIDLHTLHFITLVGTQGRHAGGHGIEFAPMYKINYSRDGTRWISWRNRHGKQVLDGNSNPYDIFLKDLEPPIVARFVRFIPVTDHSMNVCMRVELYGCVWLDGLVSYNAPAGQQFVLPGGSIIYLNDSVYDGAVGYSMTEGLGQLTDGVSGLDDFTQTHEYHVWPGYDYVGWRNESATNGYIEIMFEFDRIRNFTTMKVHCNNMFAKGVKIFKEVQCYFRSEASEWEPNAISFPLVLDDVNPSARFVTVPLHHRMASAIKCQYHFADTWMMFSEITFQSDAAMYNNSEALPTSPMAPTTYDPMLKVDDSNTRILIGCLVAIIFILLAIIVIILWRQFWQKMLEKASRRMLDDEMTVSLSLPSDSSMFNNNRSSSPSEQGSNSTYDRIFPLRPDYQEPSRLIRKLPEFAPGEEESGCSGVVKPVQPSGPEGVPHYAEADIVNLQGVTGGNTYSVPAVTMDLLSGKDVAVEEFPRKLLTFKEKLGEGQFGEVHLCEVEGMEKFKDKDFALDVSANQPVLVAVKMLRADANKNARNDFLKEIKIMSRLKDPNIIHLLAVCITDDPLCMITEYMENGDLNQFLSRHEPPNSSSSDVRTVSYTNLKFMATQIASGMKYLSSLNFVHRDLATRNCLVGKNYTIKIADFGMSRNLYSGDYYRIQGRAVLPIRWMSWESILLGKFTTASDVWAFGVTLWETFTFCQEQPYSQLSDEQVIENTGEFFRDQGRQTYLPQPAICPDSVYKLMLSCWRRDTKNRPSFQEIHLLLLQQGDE
# [6] = target: Tyrosine-protein kinase FRK (Homo sapiens) (UniProt P42685); assay: Binding affinity to human FRK (215 to 503 residues) expressed in mammalian expression system at 1 uM by kinome scan assay relative to control
# Tyrosine-protein kinase FRK (Homo sapiens), sequence (P42685 whole entry, the tested form may be a part): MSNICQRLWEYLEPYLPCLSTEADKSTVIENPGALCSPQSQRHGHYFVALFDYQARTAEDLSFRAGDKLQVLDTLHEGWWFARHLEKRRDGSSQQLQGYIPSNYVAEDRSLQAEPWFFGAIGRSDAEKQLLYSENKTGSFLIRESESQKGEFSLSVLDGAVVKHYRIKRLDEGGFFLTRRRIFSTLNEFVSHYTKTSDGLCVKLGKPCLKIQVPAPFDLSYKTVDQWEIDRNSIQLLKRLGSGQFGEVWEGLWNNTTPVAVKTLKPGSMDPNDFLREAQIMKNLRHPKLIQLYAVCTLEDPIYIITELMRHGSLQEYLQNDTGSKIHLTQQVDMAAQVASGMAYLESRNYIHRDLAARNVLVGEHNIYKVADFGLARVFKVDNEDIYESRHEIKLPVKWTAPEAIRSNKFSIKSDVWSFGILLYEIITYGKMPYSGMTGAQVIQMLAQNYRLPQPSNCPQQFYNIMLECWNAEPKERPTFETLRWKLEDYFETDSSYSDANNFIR
# [7] = Cmax in mouse at 3 mg/kg, po; format: ADME, organism-based; set-up: dose 3 mg/kg, route oral; settings: in vivo
# [8] = Cmax in rat at 10 mg/kg, po; format: ADME, organism-based; set-up: dose 10 mg/kg, route oral; settings: in vivo
# [9] = Cmax in dog at 1 mg/kg, po; format: ADME, organism-based, Canis lupus familiaris; set-up: dose 1 mg/kg, route oral; settings: in vivo
# [10] = AUC (infinity) in mouse at 3 mg/kg, po; format: ADME, organism-based; set-up: dose 3 mg/kg, route oral, time infinity; settings: in vivo
# [11] = AUC (infinity) in dog at 1 mg/kg, po; format: ADME, organism-based, Canis lupus familiaris; set-up: dose 1 mg/kg, time infinity, route oral; settings: in vivo
# [12] = Clearance in mouse at 1 mg/kg, iv or 3 mg/kg, po; format: ADME, organism-based; settings: in vivo
# [13] = Clearance in dog at 0.3 mg/kg, iv or 1 mg/kg, po; format: ADME, organism-based, Canis lupus familiaris; settings: in vivo
# [14] = Volume of distribution at steady state in mouse at 1 mg/kg, iv or 3 mg/kg, po; format: ADME, organism-based; settings: in vivo, read-out: Vdss
# [15] = Oral bioavailability in mouse at 3 mg/kg; format: ADME, organism-based; settings: in vivo
# [16] = Oral bioavailability in rat at 10 mg/kg; format: ADME, organism-based; settings: in vivo
# [17] = Metabolic stability in rat plasma after 3 hrs; format: ADME, cell-free; settings: read-out: Stability
# [18] = Metabolic stability in dog plasma after 3 hrs; format: ADME, cell-free, Canis lupus familiaris; settings: read-out: Stability
# [19] = Metabolic stability in human plasma after 3 hrs; format: ADME, cell-free; settings: read-out: Stability
# [20] = Protein binding in rat plasma; format: ADME, cell-free; settings: read-out: PPB (converted)
# [21] = Protein binding in mouse plasma; format: ADME, cell-free; settings: read-out: PPB (converted)
# [22] = Protein binding in dog plasma; format: ADME, cell-free, Canis lupus familiaris; settings: read-out: PPB (converted)
# [23] = test system: Plasma; assay: Plasma concentration in po dosed mouse xenografted with human Calu6 cells administered as single dose measured after 1 to 24 hrs post dose by LC-MS analysis; format: ADME, organism-based; settings: in vivo
# [24] = test system: Mus musculus; assay: In vivo inhibition of ERK phosphorylation at Thr202/Tyr204 and Thr185/Tyr187 in mouse xenografted with human Calu6 cells at 10 mg/kg, po administered as single dose measured at 24 hrs post dose; format: functional, organism-based
# [25] = test system: Plasma; assay: Plasma concentration in mouse xenografted with human Calu6 cells at 10 mg/kg, po administered as single dose measured at 24 hrs post dose by LC-MS analysis; format: ADME, organism-based; settings: in vivo, BLD = below limit of detection
# [26] = test system: Calu-6; assay: Antitumor activity against human Calu6 cells xenografted in nude mouse assessed as effect on tumor volume at 10 mg/kg/day, po administered for 15 days starting on day 12 post tumor implantation measured on day 27 relative to control; format: functional
# [27] = test system: Calu-6; assay: Antitumor activity against human Calu6 cells xenografted in nude mouse assessed as effect on tumor volume at 30 mg/kg/day, po administered for 15 days starting on day 12 post tumor implantation measured on day 27 relative to control; format: functional
# [28] = test system: Mus musculus; assay: Toxicity in nude mouse xenografted with human Calu6 cells assessed as body weight loss at 10 to 200 mg/kg/day, po administered for 15 days starting on day 12 post tumor implantation measured twice per week of compound dosing; format: organism-based; settings: in vivo, 360 h
# [29] = test system: Mus musculus; assay: Toxicity in nude mouse xenografted with human Calu6 cells assessed as mortality at 10 to 200 mg/kg/day, po administered for 15 days starting on day 12 post tumor implantation; format: organism-based; settings: in vivo, 360 h
# [30] = test system: PC-3; assay: Antitumor activity against human PC3 cells xenografted in nude mouse assessed as reduction in tumor volume at 200 mg/kg/day, po dosed on day 12 continued until day 25 post implantation; format: functional, organism-based
# [31] = target: RAF proto-oncogene serine/threonine-protein kinase (Homo sapiens, UniProt P04049); assay: Activation of CRAF in human Calu6 cells assessed as increase in MEK phosphorylation after 2 hrs by FRET assay; format: cell-based
# RAF proto-oncogene serine/threonine-protein kinase, sequence (P04049 whole entry): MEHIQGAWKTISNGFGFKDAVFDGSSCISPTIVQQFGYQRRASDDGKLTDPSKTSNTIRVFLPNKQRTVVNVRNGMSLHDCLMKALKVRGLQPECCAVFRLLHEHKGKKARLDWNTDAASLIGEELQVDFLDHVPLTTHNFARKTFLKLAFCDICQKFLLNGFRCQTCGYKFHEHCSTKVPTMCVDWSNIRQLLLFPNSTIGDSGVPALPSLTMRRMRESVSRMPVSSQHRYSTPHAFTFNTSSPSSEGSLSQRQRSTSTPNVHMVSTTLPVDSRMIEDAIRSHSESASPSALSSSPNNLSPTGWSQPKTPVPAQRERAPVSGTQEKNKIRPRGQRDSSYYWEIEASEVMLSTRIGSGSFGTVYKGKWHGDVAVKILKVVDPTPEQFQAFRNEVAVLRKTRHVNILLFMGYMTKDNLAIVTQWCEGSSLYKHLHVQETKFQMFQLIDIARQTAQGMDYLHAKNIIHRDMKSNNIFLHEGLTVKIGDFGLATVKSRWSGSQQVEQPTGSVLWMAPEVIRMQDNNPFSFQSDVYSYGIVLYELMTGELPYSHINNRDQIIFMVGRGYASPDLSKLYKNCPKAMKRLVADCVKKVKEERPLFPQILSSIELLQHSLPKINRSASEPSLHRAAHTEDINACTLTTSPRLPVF
# [32] = test system: Mus musculus; assay: Time during which free plasma concentration exceeds cellular in vitro EC50 for CRAF-mediated ERK phosphorylation in mouse xenografted with human Calu6 cells at 200 mg/kg, po administered as single dose
# [33] = test system: Mus musculus; assay: In vivo inhibition of ERK1/2 phosphorylation at Thr202/Tyr204 and Thr185/Tyr187 in mouse xenografted with human Calu6 cells at 10 to 30 mg/kg, po administered as single dose measured at 24 hrs post dose; format: functional, organism-based
# [34] = test system: Mus musculus; assay: Toxicity in nude mouse xenografted with human PC3 cells assessed as mortality at 200 mg/kg/day, po administered from day 12 until day 25 post tumor implantation; format: organism-based; settings: in vivo
structure (smiles),measurement,setting,value
Cc1ncc(NC(=O)c2cccc(C(F)(F)F)c2)cc1-c1cnc(OC2CCOCC2)c(N2CCOCC2)c1,Papp A→B,[1],15 ×10⁻⁶ cm/s
same,solubility thermodynamic,[2],200 µM
same,Activity,[3],> 99%
same,Activity,[4],> 99%
same,Activity,[5],86%
same,Activity,[6],92%
same,Cmax,[7],1000 nM
same,Cmax,[8],800 nM
same,Cmax,[9],500 nM
same,AUC(0-inf),[10],1.7 µM·h
same,AUC(0-inf),[11],1 µM·h
same,clearance,[12],35 mL/min/kg
same,clearance,[13],14 mL/min/kg
same,Vd,[14],1.2 L/kg
same,bioavailability,[15],68%
same,bioavailability,[16],24%
same,remaining at 3 h,[17],85%
same,remaining at 3 h,[18],95%
same,remaining at 3 h,[19],101%
same,fraction unbound,[20],0.02
same,fraction unbound,[21],0.02
same,fraction unbound,[22],0.02
same,Drug uptake,[23],Dose-dependent effect
same,inhibition,[24],inactive
same,Cp,[25],Bld
same,T/C,[26],92%
same,T/C,[27],46%
same,Activity,[28],Non-Toxic
same,Activity,[29],Non-Toxic
same,Activity,[30],inactive
same,Activity,[31],Not Active
same,Time,[32],24 h
same,inhibition,[33],inactive
same,Activity,[34],Non-Toxic
